Non-standard residues stand in square brackets, D forms with d. Residues, ends and D or L forms follow the SMILES beside them. Nva = CCC[C@H](N)C(=O)O
Key:
[1] = tested on: rabbit atropine-induced dry eye model; test: Slit-lamp examination of the anterior segment (McDonald-Shattuck) in atropine-induced dry eye study; format: in vivo, NZW rabbits; settings: ALY688 0.4% ophthalmic TID (Formula 22); baseline and Day 13
Protocol: (§1) The purpose of this study was to evaluate the efficacy of a topical ALY688 ophthalmic formulation according Formula 22 in Example 2 in a rabbit atropine-induced dry eye model.
(§2) Clinical evaluations of corneal fluorescein staining, tear break-up time and tear volume were determined at five timepoints during the 14 day dosing period. Pre-dose ophthalmic anterior segment slit-lamp exams with corneal fluorescein staining, Tear Volume (TV) and Tear Break-Up Time (TBUT) assessments were performed. Animals were assigned to treatment groups such that the average baseline TV and TBUT values were approximately equal across groups.
(§3) Study Groups were assigned as follows: • Group 1: Atropine+ALY688 0.4% ophthalmic TID, (n=6) • Group 2: Atropine+Vehicle ophthalmic TID, (n=6) • Group 3: Atropine only (n=4)
Examinations: Slit-lamp examinations of the anterior segment were performed at baseline and on Day 13 according to the McDonald-Shattuck Scoring System including conjunctival congestion, swelling, and discharge, corneal opacity, pannus, anterior chamber cells and flare, iris, light reflex, and lens.

[2] = tested on: rabbit atropine-induced dry eye model; test: Corneal epithelial fluorescein staining in atropine-induced dry eye; format: in vivo, NZW rabbits
Protocol: as §1, §2, §3
(§4) Test article dosing began on Day −1.
(§5) Atropine eye drops (TID) began on Day 0.
(§6) Dry eye evaluations were performed on Days 1, 3, 7, 10, and 13.
Corneal epithelial staining: Corneal staining was assessed immediately after the TBUT measurement, after rinsing excess fluorescein. Fluorescein uptake was graded according to the NEI/Industry Grading System, in 5 separate areas of the cornea using a 0-3 grading scale maximum score: 15). Total staining score was calculated for each eye.

[3] = tested on: rabbit atropine-induced dry eye model; test: Atropine-induced dry eye in rabbits, overall conclusion; format: in vivo, NZW rabbits
Protocol: as §1, §2, §3, §4, §5, §6
The evaluator was masked as to treatment group for all assessments.

[4] = tested on: rabbit atropine-induced dry eye model; test: Tear Volume (TV, Schirmer Tear Test strips) in atropine-induced dry eye; format: in vivo, NZW rabbits
Protocol: as §1, §2, §3, §4, §5, §6
Tear Volume (TV): Tear volume was measured using Schirmer Tear Test strips (Intervet, Inc., Summit, NJ), by placing the strip into the lower fornix for 60 seconds and recording the mm distance of the wetted area.

[5] = tested on: rabbit atropine-induced dry eye model; test: Tear Break-Up Time (TBUT) in atropine-induced dry eye; format: in vivo, NZW rabbits
Protocol: as §1, §2, §3, §4, §5, §6
Tear Breakup Time (TBUT): TBUT was determined after instillation of 6 μL of 2% sodium fluorescein in sterile saline onto the lower eyelid. After manually blinking the eye, the time for black spots or streaks to appear on the cornea under cobalt filter illumination was recorded. The procedure was conducted three times consecutively, and the average of three readings was used.

[6] = Solubility of the peptide in acetate buffer formulation; format: physicochemical
Protocol: Vehicle was prepared by dissolving propylene glycol (1.77 g) and Tyloxapol (0.1 g) in 97 mL of 35 mM of Acetic Acid/Sodium Acetate buffer, pH 4.3-4.5 by mixing until uniform. The peptide D-Asn-Ile-Pro-Nva-Leu-Tyr-D-Ser-Phe-Ala-D-Ser-NH2 (API, also referred to as ALY688 or ALY-688 herein) (1.0 g) was added to the vehicle and mixed until dissolved. The pH was adjusted with small amounts of Acetic Acid or Sodium Hydroxide. The formulation was sterile-filtered.
A concentration of 12 mg/g Acetate buffer gave a clear solution at a pH 4.5.

[7] = integrated AUC response vs baseline, p<0.005, FIG. 4

## CCC[C@H](NC(=O)[C@@H]1CCCN1C(=O)[C@@H](NC(=O)[C@H](N)CC(N)=O)[C@@H](C)CC)C(=O)N[C@@H](CC(C)C)C(=O)N[C@@H](Cc1ccc(O)cc1)C(=O)N[C@H](CO)C(=O)N[C@@H](Cc1ccccc1)C(=O)N[C@@H](C)C(=O)N[C@H](CO)C(N)=O [ALY688, D-Asn-Ile-Pro-Nva-Leu-Tyr-D-Ser-Phe-Ala-D-Ser-NH2] (H-[dN]IP[Nva]LY[dS]FA[dS]-NH2; N-terminus assumed)
[1]
  anterior segment slit-lamp exam findings related to test article: no abnormal findings
[2]; ALY688 0.4% TID, all evaluation timepoints, statistically significant on Days 1, 3, 10 (p<0.05)
  corneal fluorescein staining vs vehicle control group: lower
[2]; [7]
  corneal staining, integrated analysis at all post-baseline timepoints vs vehicle: highly statistically significant improvement
[3]; ALY688 ophthalmic solution 0.4% TID, 14 day dosing
  reduction of dry eye signs: highly effective at reducing dry eye signs
[3]; after initiation of ALY688 treatment
  onset of effects: as early as two days after initiation
[4]; ALY688 0.4% TID, Day 13 (p=0.01), borderline (p=0.08) on Days 1 and 7
  Tear Volume vs vehicle group on Day 13: statistically significantly higher
[4]; ALY688 0.4% TID, all timepoints
  Tear Volume vs vehicle control group: consistently higher
[4]; [7]
  Tear Volume, integrated analysis at all post-baseline timepoints vs vehicle: highly statistically significant improvement
[5]; ALY688 0.4% TID, Day 1 of atropine treatment (vehicle group 50%)
  TBUT decrease: 32%
[5]; ALY688 0.4% TID, Day 7
  TBUT level by Day 7: returned to baseline TBUT levels
[5]; ALY688 0.4% TID, Days 7, 10 and 13 (p<0,01)
  TBUT compared to vehicle: statistically significant higher
[5]; ALY688 0.4% TID, after Day 7 to Day 13
  TBUT level through the remainder of the study: maintained normal TBUT levels
[5]; ALY688 0.4% TID, all post-baseline days, 2-sample two-tailed t-test
  TBUT compared to atropine-only group: statistically significantly higher
[5]; [7]
  TBUT, integrated analysis at all post-baseline timepoints vs vehicle: highly statistically significant improvement
[6]; Acetate buffer, pH 4.5
  concentration that gave a clear solution: 12 mg/g
[6]; formulation of Example 1
  solubility of the peptide: significantly increased

From patent publication US12201668B2, “Adiponectin peptidomimetics formulations” (ALLYSTA PHARMACEUTICALS, INC., priority 2018, dated 2025)
